The test deals with human VPS34 (Homo sapiens (Human), UniProt Q8NEB9). Nature of the test: Human VPS34 enzyme assay (Adapta TR-FRET). To be noted: for inhibition at 1.11 µM: 1 h, inhibition of VPS34 at a 1.11 μM concentration, read-out: Percent Inhibition; for IC50: human VPS34 enzyme assay, IC50 ranges. In kind it is biochemical. How it is done: VPS34 (accession number GB:BC033004) was cloned into pDEST20-Thombin as N-terminal GST tagged fusion proteins using the Gateway system (Invitrogen, catalog#11804-013). The sequences were verified before recombinant protein expression using the Baculovirus Expression System with Gateway® Technology. For expression VPS34 was infected at 1 MOI in SF9 cells and harvested 72 hours post infection. For purification, VPS34 is purified by Glutathione Sepharose 4 Fast Flow (GE Healthcare #17-5132-03) followed by HiTrap Q (GE Healthcare #17-1153-01). Human VPS34 Enzyme Assay Method 100 nL compounds in DMSO are added to wells of a 384 well microtitre plate (Greiner 780076). At room temperature: 5 ul VPS34 reaction buffer (Invitrogen Assay Buffer Q (diluted 1 in 5 with nanopure water) plus 2 mM DTT and 2 mM MnCl2) containing ATP (20 uM, Promega) and 200 uM PI-PS substrate (Invitrogen PV5122) is added followed immediately by 5 ul VPS34 reaction buffer (as above) containing VPS34 (5 nM, Millennium Protein Sciences Group) and the mixture is incubated with shaking at room temperature for 1 hour. Then 5 ul […]-detect mix (as per Invitrogen Adapta Assay kit (PV5009) instructions (contains kinase quench buffer, TR-FRET buffer, Adapta Eu anti-ADP antibody and Alexa Fluor 647 ADP tracer)) is added to quench the reaction. The plates are then incubated for 30 minutes at room temperature with shaking and then read on a BMG PheraStar Plus reader. For the assay methods described above, test compound percent inhibition, at various concentrations, is calculated relative to control (DMSO and EDTA) treated samples. Compound concentration versus percent inhibition curves are fitted to generate IC50 values. One skilled in the art will appreciate that the values generated either as percentage inhibition at a single concentration or IC50 values are subject to experimental variation. […] Additionally, compounds of the invention that inhibit VPS34 are described with the following IC50 ranges: […]
Chain of human VPS34 (Q8NEB9 whole entry, the tested form may be a part): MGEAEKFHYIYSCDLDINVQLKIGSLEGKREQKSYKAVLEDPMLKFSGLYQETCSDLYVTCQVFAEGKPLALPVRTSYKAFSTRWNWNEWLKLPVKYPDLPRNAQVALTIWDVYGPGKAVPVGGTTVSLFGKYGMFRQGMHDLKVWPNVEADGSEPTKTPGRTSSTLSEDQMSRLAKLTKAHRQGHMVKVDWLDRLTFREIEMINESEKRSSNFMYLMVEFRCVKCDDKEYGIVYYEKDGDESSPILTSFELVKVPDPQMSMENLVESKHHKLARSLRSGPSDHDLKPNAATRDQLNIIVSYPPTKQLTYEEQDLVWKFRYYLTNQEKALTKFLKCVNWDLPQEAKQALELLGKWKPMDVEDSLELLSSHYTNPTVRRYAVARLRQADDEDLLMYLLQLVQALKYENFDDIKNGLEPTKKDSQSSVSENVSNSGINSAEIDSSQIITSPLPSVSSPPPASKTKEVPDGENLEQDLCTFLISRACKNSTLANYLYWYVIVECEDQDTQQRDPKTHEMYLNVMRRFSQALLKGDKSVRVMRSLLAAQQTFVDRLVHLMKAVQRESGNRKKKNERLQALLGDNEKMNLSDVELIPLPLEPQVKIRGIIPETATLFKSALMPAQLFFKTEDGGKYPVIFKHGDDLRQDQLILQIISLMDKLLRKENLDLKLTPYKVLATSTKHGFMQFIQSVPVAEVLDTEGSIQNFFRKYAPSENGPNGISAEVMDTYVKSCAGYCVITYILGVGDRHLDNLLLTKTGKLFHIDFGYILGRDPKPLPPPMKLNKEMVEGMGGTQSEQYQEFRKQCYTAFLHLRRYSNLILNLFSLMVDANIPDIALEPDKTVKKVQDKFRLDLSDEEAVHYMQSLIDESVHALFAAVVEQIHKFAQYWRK
Background: Time-resolved FRET reads energy transfer from a long-lived donor to a nearby acceptor.

Molecules are shown by their SMILES.

As to `Cc1ncc(-c2ccnc(NC(=O)C3CC3(F)F)c2)c2ccn(S(C)(=O)=O)c12` (racemic) [Compound I-35, (rac)-2,2-difluoro-N-{4-[7-methyl-1-(methylsulfonyl)-1H-pyrrolo[2,3-c]pyridin-4-yl]pyridin-2-yl}cyclopropanecarboxamide], the inhibition (usually the change of the read-out against control, counted positive when it falls) at 1.11 µM was more than 99% and the IC50 (as a rule, the midpoint of a concentration-inhibition curve) was less than 0.01 µM.

In the case of `COC(=O)Nc1cc(-c2cnc(OC)c3c2ccn3S(C)(=O)=O)ccn1` [Compound I-1, methyl {4-[7-methoxy-1-(methylsulfonyl)-1H-pyrrolo[2,3-c]pyridin-4-yl]pyridin-2-yl}carbamate], the inhibition at 1.11 µM is more than 99% and the IC50 is less than 0.01 µM.

`COC(=O)Nc1cc(-c2cnc(C)c3c2ccn3S(=O)(=O)c2ccccc2)ccn1` [Compound I-2, methyl {4-[7-methyl-1-(phenylsulfonyl)-1H-pyrrolo[2,3-c]pyridin-4-yl]pyridin-2-yl}carbamate]: the inhibition at 1.11 µM is more than 99% and the IC50 is less than 0.01 µM.

As for `CCc1ncc(-c2ccnc(NC(C)=O)c2)c2ccn(S(C)(=O)=O)c12` [Compound I-3, N-{4-[7-ethyl-1-(methylsulfonyl)-1H-pyrrolo[2,3-c]pyridin-4-yl]pyridin-2-yl}acetamide], the inhibition at 1.11 µM is more than 99% and the IC50 was less than 0.01 µM.

As to `CC(=O)Nc1cc(-c2cnc(C)c3c2ccn3S(=O)(=O)c2ccccc2)ccn1` [Compound I-4, N-{4-[7-methyl-1-(phenylsulfonyl)-1H-pyrrolo[2,3-c]pyridin-4-yl]pyridin-2-yl}acetamide], the inhibition at 1.11 µM is more than 99% and the IC50 is less than 0.01 µM.

Consider `CC(=O)Nc1cc(-c2cnc(C)c3c2c(C)cn3S(C)(=O)=O)ccn1` [Compound I-5, N-{4-[3,7-dimethyl-1-(methylsulfonyl)-1H-pyrrolo[2,3-c]pyridin-4-yl]pyridin-2-yl}acetamide], for which the inhibition at 1.11 µM is more than 99% and the IC50 was 0.05 to 0.1 µM.

With `COC(=O)Nc1cc(-c2cnc(C)c3c2ccn3S(=O)(=O)N(C)C)ccn1` [Compound I-6, methyl {4-[1-(dimethylsulfamoyl)-7-methyl-1H-pyrrolo[2,3-c]pyridin-4-yl]pyridin-2-yl}carbamate], the inhibition at 1.11 µM is more than 99% and the IC50 was 0.01 to 0.05 µM.

`CC(=O)Nc1cc(-c2cnc(C)c3c2ccn3S(=O)(=O)N(C)C)ccn1` [Compound I-7, N-{4-[1-(dimethylsulfamoyl)-7-methyl-1H-pyrrolo[2,3-c]pyridin-4-yl]pyridin-2-yl}acetamide]: the inhibition at 1.11 µM is more than 99% and the IC50 was less than 0.01 µM.

For the molecule `CC(=O)Nc1cc(-c2cncc3c2ccn3S(=O)(=O)C2CC2)c(F)cn1` [Compound I-8, N-{4-[1-(cyclopropylsulfonyl)-1H-pyrrolo[2,3-c]pyridin-4-yl]-5-fluoropyridin-2-yl}acetamide], the inhibition at 1.11 µM was more than 99% and the IC50 fell in the range of 0.01 to 0.05 µM.

With `CS(=O)(=O)n1ccc2c(-c3ccnc(Nc4ncco4)c3)cncc21` [Compound I-9, 4-[1-(methylsulfonyl)-1H-pyrrolo[2,3-c]pyridin-4-yl]-N-(1,3-oxazol-2-yl)pyridin-2-amine], the inhibition at 1.11 µM was more than 99% and the IC50 lay in the range of 0.01 to 0.05 µM.

In the case of `COC(=O)Nc1cc(-c2cnc(OC)c3c2ccn3S(=O)(=O)c2ccccc2)ccn1` [Compound I-10, methyl {4-[7-methoxy-1-(phenylsulfonyl)-1H-pyrrolo[2,3-c]pyridin-4-yl]pyridin-2-yl}carbamate], the inhibition at 1.11 µM is more than 99% and the IC50 is less than 0.01 µM.

In the case of `CC(=O)Nc1cc(-c2cnc(C)c3c2ccn3S(=O)(=O)c2ccc(F)cc2F)ccn1` [Compound I-11, N-(4-{1-[(2,4-difluorophenyl)sulfonyl]-7-methyl-1H-pyrrolo[2,3-c]pyridin-4-yl}pyridin-2-yl)acetamide], the inhibition at 1.11 µM was more than 99% and the IC50 lay within 0.01 to 0.05 µM.

For the molecule `COC(=O)Nc1cc(-c2cnc(C)c3c2ccn3S(=O)(=O)C2CCCC2)ccn1` [Compound I-12, methyl {4-[1-(cyclopentylsulfonyl)-7-methyl-1H-pyrrolo[2,3-c]pyridin-4-yl]pyridin-2-yl}carbamate], the inhibition at 1.11 µM was more than 99% and the IC50 lay in the range of 0.01 to 0.05 µM.

`O=S(=O)(c1ccccc1)n1ccc2c(-c3ccnc(Nc4ncco4)c3)cncc21` [Compound I-13, N-(1,3-oxazol-2-yl)-4-[1-(phenylsulfonyl)-1H-pyrrolo[2,3-c]pyridin-4-yl]pyridin-2-amine]: the inhibition at 1.11 µM was more than 99% and the IC50 fell in the range of 0.01 to 0.05 µM.

Regarding `CC(=O)Nc1cc(-c2cnc(C)c3c2c(F)cn3S(=O)(=O)C2CC2)ccn1` [Compound I-14, N-{4-[1-(cyclopropylsulfonyl)-3-fluoro-7-methyl-1H-pyrrolo[2,3-c]pyridin-4-yl]pyridin-2-yl}acetamide], the inhibition at 1.11 µM was more than 99% and the IC50 was 0.01 to 0.05 µM.

Take `COC(=O)Nc1cc(-c2cnc(C)c3c2ccn3S(=O)(=O)CC(C)C)ccn1` [Compound I-15, methyl {4-[1-(isobutylsulfonyl)-7-methyl-1H-pyrrolo[2,3-c]pyridin-4-yl]pyridin-2-yl}carbamate]: the inhibition at 1.11 µM is more than 99% and the IC50 was less than 0.01 µM.

As to `CCS(=O)(=O)n1ccc2c(-c3ccnc(NC(C)=O)c3)cnc(C)c21` [Compound I-16, N-{4-[1-(ethylsulfonyl)-7-methyl-1H-pyrrolo[2,3-c]pyridin-4-yl]pyridin-2-yl}acetamide], the inhibition at 1.11 µM was more than 99% and the IC50 was less than 0.01 µM.

With `COC(=O)Nc1cc(-c2cncc3c2ccn3S(=O)(=O)N(C)C)ccn1` [Compound I-17, methyl {4-[1-(dimethylsulfamoyl)-1H-pyrrolo[2,3-c]pyridin-4-yl]pyridin-2-yl}carbamate], the inhibition at 1.11 µM was more than 99% and the IC50 is less than 0.01 µM.

With `CC(=O)Nc1cc(-c2cnc(N(C)C)c3c2ccn3S(=O)(=O)C2CC2)ccn1` [Compound I-18, N-{4-[1-(cyclopropylsulfonyl)-7-(dimethylamino)-1H-pyrrolo[2,3-c]pyridin-4-yl]pyridin-2-yl}acetamide], the inhibition at 1.11 µM is more than 99% and the IC50 fell in the range of 0.01 to 0.05 µM.

As for `CC(=O)Nc1cc(-c2cncc3[nH]ccc23)ccn1` [Compound I-20, N-[4-(1H-pyrrolo[2,3-c]pyridin-4-yl)pyridin-2-yl]acetamide], the inhibition at 1.11 µM is more than 99% and the 50% inhibitory concentration (IC50) lay in the range of 0.05 to 0.1 µM.

`CC(=O)Nc1cc(-c2cncc3c2ccn3S(C)(=O)=O)ccn1` [Compound I-21, N-{4-[1-(methylsulfonyl)-1H-pyrrolo[2,3-]pyridin-4-yl]pyridin-2-yl}acetamide]: the inhibition at 1.11 µM is more than 99% and the IC50 fell in the range of 0.01 to 0.05 µM.

With `CC(=O)Nc1cc(-c2cncc3c2cnn3S(=O)(=O)C2CC2)ccn1` [Compound I-22, N-{4-[1-(cyclopropylsulfonyl)-1H-pyrazolo[3,4-c]pyridin-4-yl]pyridin-2-yl}acetamide], the inhibition at 1.11 µM is more than 99% and the IC50 lay within 0.05 to 0.1 µM.

As for `CC(=O)Nc1cc(-c2cnc(C)c3c2ccn3S(=O)(=O)N2CCCC2)ccn1` [Compound I-23, N-{4-[7-methyl-1-(pyrrolidin-1-ylsulfonyl)-1H-pyrrolo[2,3-c]pyridin-4-yl]pyridin-2-yl}acetamide], the inhibition at 1.11 µM was more than 99% and the IC50 was less than 0.01 µM.

`CCc1cc2c(-c3ccnc(NC(C)=O)c3)cncc2n1S(=O)(=O)c1ccccc1` [Compound I-24, N-{4-[2-ethyl-1-(phenylsulfonyl)-1H-pyrrolo[2,3-c]pyridin-4-yl]pyridin-2-yl}acetamide]: the inhibition at 1.11 µM is more than 99% and the IC50 is 0.01 to 0.05 µM.

For the molecule `CCOC(=O)Nc1cc(-c2cncc3c2ccn3S(C)(=O)=O)ccn1` [Compound I-25, ethyl {4-[1-(methylsulfonyl)-1H-pyrrolo[2,3-c]pyridin-4-yl]pyridin-2-yl}carbamate], the inhibition at 1.11 µM is more than 99% and the IC50 is less than 0.01 µM.

On to `O=C(Cc1nnn[nH]1)Nc1cc(-c2cncc3c2ccn3S(=O)(=O)C2CC2)ccn1` [Compound I-27, N-{4-[1-(cyclopropylsulfonyl)-1H-pyrrolo[2,3-c]pyridin-4-yl]pyridin-2-yl}-2-(1H-tetrazol-5-yl)acetamide], for which the inhibition at 1.11 µM is more than 99% and the IC50 is 0.01 to 0.05 µM.

For `COC(=O)Nc1cc(-c2cncc3c2ccn3S(=O)(=O)c2ccccc2)ccn1` [Compound I-28, methyl {4-[1-(phenylsulfonyl)-1H-pyrrolo[2,3-c]pyridin-4-yl]pyridin-2-yl}carbamate], the inhibition at 1.11 µM was more than 99% and the IC50 is 0.01 to 0.05 µM.
